Test results as given in patent US20260001928A1 (CORTERIA PHARMACEUTICALS, priority 2022, published 2026).
pEC50: −log10 of the molar value. *1 amine or outer side, *2 acyl side, *3 side chain or, on linkers, in order; H or OH if unused. Where a SMILES comes first, the peptide text is derived from it. Side-chain parts run from the residue outwards. [ ]: non-standard residue; d: D form. The star is where a group is joined. C18 diacid = O=C(O)CCCCCCCCCCCCCCCCC(=O)*; C16 diacid = O=C(O)CCCCCCCCCCCCCCC(=O)*; γGlu = O=C(O)[C@H](CCC(=O)[*:2])N[*:1]; C14 diacid = O=C(O)CCCCCCCCCCCCC(=O)*; Api = NC1(C(=O)O)CCNCC1; AEEA = NCCOCCOCC(=O)O; Aib = CC(C)(N)C(=O)O; Propionyl = CCC(=O)*

Experiments:
CFR1R receptor = target: T1, CFR1R receptor (Homo sapiens, UniProt P34998); assay: Activity at anti-target CFR1R receptor, cAMP assay in CRF1R-overexpression CHO-K1 cells; format: cell-based; conditions: 100% = Sauvagine at 100 nM; for pEC50: cAMP
T1 construct: host or cells: CHO-K1 (clone 2)
T1 sequence (P34998 24-415): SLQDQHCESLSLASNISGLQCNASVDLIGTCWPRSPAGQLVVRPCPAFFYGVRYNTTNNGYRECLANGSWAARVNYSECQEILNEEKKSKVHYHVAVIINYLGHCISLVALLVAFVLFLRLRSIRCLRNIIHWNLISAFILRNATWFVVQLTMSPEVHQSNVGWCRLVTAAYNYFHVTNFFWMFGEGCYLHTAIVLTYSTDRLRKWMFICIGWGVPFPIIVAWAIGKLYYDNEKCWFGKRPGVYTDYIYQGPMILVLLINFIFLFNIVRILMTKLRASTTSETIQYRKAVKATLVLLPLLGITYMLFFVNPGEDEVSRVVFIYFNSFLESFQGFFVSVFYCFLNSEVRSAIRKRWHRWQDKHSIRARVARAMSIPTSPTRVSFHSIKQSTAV
How it was run: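 cAMP readout in CRF1R-overexpressing CHO-K1 cells (clone 2), run as for the TeloHAEC assay at 4000 cells/well final. Cells came from cryopreserved banks. Sauvagine at 100 nM defined 100% activation.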

human CRF2a receptor = target: T2, human CRF2a receptor (Homo sapiens, UniProt Q13324); assay: Activity at human CRF2a receptor, cAMP functional assay in TeloHEAC cells; format: cell-based; conditions: TeloHEAC cells stably expressing human CRF2a receptor, relative to urocortin 2 (100 nM = 100%)
T2 construct: expressed in transfected cells; host or cells: TeloHEAC cells
T2 sequence (Q13324 1-411): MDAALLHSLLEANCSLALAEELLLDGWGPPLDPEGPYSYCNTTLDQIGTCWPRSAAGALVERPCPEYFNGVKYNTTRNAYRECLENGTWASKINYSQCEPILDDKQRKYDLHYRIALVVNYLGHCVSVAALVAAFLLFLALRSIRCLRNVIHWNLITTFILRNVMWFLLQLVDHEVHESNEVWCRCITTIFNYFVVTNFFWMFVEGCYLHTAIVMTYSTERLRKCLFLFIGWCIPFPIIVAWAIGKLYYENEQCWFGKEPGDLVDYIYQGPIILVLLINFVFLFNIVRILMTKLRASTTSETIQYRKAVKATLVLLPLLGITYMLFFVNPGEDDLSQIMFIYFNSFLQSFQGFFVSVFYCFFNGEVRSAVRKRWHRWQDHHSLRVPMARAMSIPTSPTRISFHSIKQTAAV
Procedure: Agonism of compounds for human corticotropin-releasing factor 2a (CRF2a receptor) was determined by a functional assay measuring cAMP modulation upon treatment of TeloHEAC cells stably expressing human CRF2a receptor. Compounds were dissolved at 0.5 mM in 100% DMSO and serially diluted (1:2) in 100% DMSO for 16 dilutions. 20 nL of each dilution was then transferred to 384-well assay plate using an acoustic droplet ejection instrument. 5 μL of compound buffer (1×HBSS; 20 mM HEPES,) were then added to each well. Prior to use, frozen cells were thawed quickly at 37° C. and washed (5 min at 900 rpm) with 20 mL cell buffer (1×HBSS; 20 mM HEPES). Cells were resuspended in cell buffer added with 2 mM IBMX and adjusted to a cell density of […]. 5 μL cells (final dell density: 10000 cells/well) were dispensed in the compound-containing 384-well assay plate and incubated for 30 minutes 37° C. The cAMP level in treated cells was determined using the Cisbio 62AM4PEC kit according to manufacturer's instruction. Finally, plates were incubated for 1 h at room temperature before measuring the fluorescence ratio between 665/620 nm. The percent activity value (E %) was calculated by setting 100 nM of urocortin 2 (UCN2) as 100%. The in vitro potency of the compounds was quantified by determining the concentrations that caused 50% activation of maximal response (EC50) relative to urocortin 2.

Structure (SMILES) | Emax (% I) (CFR1R receptor) | pEC50 (CFR1R receptor) | pEC50 (human CRF2a receptor)
CC[C@H](C)[C@H](NC(C)=O)C(=O)N[C@H](C(=O)N[C@@H](CC(C)C)C(=O)N[C@@H](CO)C(=O)N[C@@H](CC(C)C)C(=O)N[C@@H](CC(=O)O)C(=O)N[C@@H](C(=O)N1CCC[C@H]1C(=O)N[C@H](C(=O)N[C@@H](CCCCN)C(=O)N[C@@H](CC(C)C)C(=O)N[C@@H](CCCCNC(=O)COCCOCCNC(=O)COCCOCCNC(=O)CC[C@H](NC(=O)CCCCCCCCCCCCC(=O)O)C(=O)O)C(=O)N[C@@H](CCCCN)C(=O)N[C@H](C(=O)N[C@@H](CC(C)C)C(=O)N[C@@H](CC(C)C)C(=O)N[C@@H](CCC(=O)O)C(=O)N[C@@H](CCC(N)=O)C(=O)N[C@@H](CCC(=O)O)C(=O)N[C@@H](CCCCN)C(=O)N[C@@H](CCC(N)=O)C(=O)N[C@@H](CCCCN)C(=O)N[C@@H](CCCCN)C(=O)N[C@@H](CCC(N)=O)C(=O)N[C@@H](CCCNC(=N)N)C(=O)N[C@@H](CCC(=O)O)C(=O)N[C@@H](CCC(N)=O)C(=O)N[C@@H](C)C(=O)N[C@@H](CCC(=O)O)C(=O)N[C@H](C(=O)N[C@@H](CC(N)=O)C(=O)NC(C)(C)C(=O)N[C@@H](CCC(N)=O)C(=O)N[C@H](C(=O)N[C@@H](CC(C)C)C(=O)N[C@@H](C)C(=O)N[C@@H](CCC(N)=O)C(=O)N[C@H](C(N)=O)C(C)C)[C@@H](C)CC)[C@@H](C)O)[C@@H](C)CC)[C@@H](C)CC)C(C)C)C(C)C [compound 171] (Ac-IVLSLD[dV]PIKLK([AEEA-AEEA-γGlu-C14 diacid])KILLEQEKQKKQREQAETN[Aib]QILAQV-NH2) | 0 | < 6.60 | 8.24
CCC(=O)N[C@H](C(=O)N[C@@H](CC(C)C)C(=O)N[C@@H](CO)C(=O)N[C@@H](CC(C)C)C(=O)N[C@@H](CC(=O)O)C(=O)N[C@@H](C(=O)N1CCC[C@H]1C(=O)N[C@H](C(=O)N[C@@H](CCCCN)C(=O)N[C@@H](CC(C)C)C(=O)N[C@@H](CCCCNC(=O)CC[C@H](NC(=O)CCCCCCCCCCCCCCC(=O)O)C(=O)O)C(=O)N[C@@H](CCC(N)=O)C(=O)N[C@H](C(=O)N[C@@H](CC(C)C)C(=O)N[C@@H](CC(C)C)C(=O)N[C@@H](CCCCN)C(=O)N[C@@H](CCC(N)=O)C(=O)N[C@@H](CCC(=O)O)C(=O)N[C@@H](CCCNC(=N)N)C(=O)N[C@@H](CCC(N)=O)C(=O)N[C@@H](CCCCN)C(=O)N[C@@H](CCCCN)C(=O)N[C@@H](CCC(N)=O)C(=O)N[C@@H](CCCNC(=N)N)C(=O)N[C@@H](CCC(=O)O)C(=O)N[C@@H](CCC(N)=O)C(=O)N[C@@H](C)C(=O)N[C@@H](CCC(=O)O)C(=O)N[C@@H](CCCCN)C(=O)N[C@@H](CC(N)=O)C(=O)N[C@@H](CCCCN)C(=O)N[C@@H](CCC(N)=O)C(=O)N[C@H](C(=O)N[C@@H](CC(C)C)C(=O)N[C@@H](CCC(=O)O)C(=O)N[C@@H](CCC(N)=O)C(=O)N[C@H](C(N)=O)C(C)C)[C@@H](C)CC)[C@@H](C)CC)[C@@H](C)CC)C(C)C)C(C)C [compound 6] (Propionyl-VLSLD[dV]PIKLK([γGlu-C16 diacid])QILLKQERQKKQREQAEKNKQILEQV-NH2) | 56 |  | 10.05
CC[C@H](C)[C@H](NC(C)=O)C(=O)N[C@H](C(=O)N[C@@H](CC(C)C)C(=O)N[C@@H](CO)C(=O)N[C@@H](CC(C)C)C(=O)N[C@@H](CC(=O)O)C(=O)N[C@H](C(=O)N1CCC[C@H]1C(=O)N[C@H](C(=O)N[C@@H](CCCCN)C(=O)N[C@@H](CC(C)C)C(=O)N[C@@H](CCCCNC(=O)COCCOCCNC(=O)COCCOCCNC(=O)CC[C@H](NC(=O)CCCCCCCCCCCCCCCCC(=O)O)C(=O)O)C(=O)N[C@@H](CCCCN)C(=O)N[C@H](C(=O)N[C@@H](CC(C)C)C(=O)N[C@@H](CC(C)C)C(=O)N[C@@H](CCC(=O)O)C(=O)N[C@@H](CCC(N)=O)C(=O)N[C@@H](CCC(=O)O)C(=O)N[C@@H](CCCCN)C(=O)N[C@@H](CCC(N)=O)C(=O)N[C@@H](CCCCN)C(=O)N[C@@H](CCCCN)C(=O)N[C@@H](CCC(N)=O)C(=O)N[C@@H](CCCNC(=N)N)C(=O)N[C@@H](CCC(=O)O)C(=O)N[C@@H](CCC(N)=O)C(=O)N[C@@H](C)C(=O)N[C@@H](CCC(=O)O)C(=O)N[C@H](C(=O)N[C@@H](CC(N)=O)C(=O)NC(C)(C)C(=O)N[C@@H](CCC(N)=O)C(=O)N[C@H](C(=O)N[C@@H](CC(C)C)C(=O)N[C@@H](C)C(=O)N[C@@H](CCC(N)=O)C(=O)N[C@H](C(N)=O)C(C)C)[C@@H](C)CC)[C@@H](C)O)[C@@H](C)CC)[C@@H](C)CC)C(C)C)C(C)C [compound 97] (Ac-IVLSLDVPIKLK([AEEA-AEEA-γGlu-C18 diacid])KILLEQEKQKKQREQAETN[Aib]QILAQV-NH2) | 0 | < 6.60 | 8.50
CC[C@H](C)[C@H](NC(C)=O)C(=O)N[C@H](C(=O)N[C@@H](CC(C)C)C(=O)N[C@@H](CO)C(=O)N[C@@H](CC(C)C)C(=O)N[C@@H](CC(=O)O)C(=O)N[C@@H](C(=O)N1CCC[C@H]1C(=O)N[C@H](C(=O)N[C@@H](CCCCN)C(=O)N[C@@H](CC(C)C)C(=O)N[C@@H](CCCCNC(=O)COCCOCCNC(=O)COCCOCCNC(=O)CC[C@H](NC(=O)CC[C@H](NC(=O)CCCCCCCCCCCCC(=O)O)C(=O)O)C(=O)O)C(=O)N[C@@H](CCCCN)C(=O)N[C@H](C(=O)N[C@@H](CC(C)C)C(=O)N[C@@H](CC(C)C)C(=O)N[C@@H](CCC(=O)O)C(=O)N[C@@H](CCC(N)=O)C(=O)N[C@@H](CCC(=O)O)C(=O)N[C@@H](CCCCN)C(=O)N[C@@H](CCC(N)=O)C(=O)N[C@@H](CCCCN)C(=O)N[C@@H](CCCCN)C(=O)N[C@@H](CCC(N)=O)C(=O)N[C@@H](CCCNC(=N)N)C(=O)N[C@@H](CCC(=O)O)C(=O)N[C@@H](CCC(N)=O)C(=O)N[C@@H](C)C(=O)N[C@@H](CCC(=O)O)C(=O)N[C@H](C(=O)N[C@@H](CC(N)=O)C(=O)NC1(C(=O)N[C@@H](CCC(N)=O)C(=O)N[C@H](C(=O)N[C@@H](CC(C)C)C(=O)N[C@@H](C)C(=O)N[C@@H](CCC(N)=O)C(=O)N[C@H](C(N)=O)C(C)C)[C@@H](C)CC)CCNCC1)[C@@H](C)O)[C@@H](C)CC)[C@@H](C)CC)C(C)C)C(C)C [compound 175] (Ac-IVLSLD[dV]PIKLK([AEEA-AEEA-γGlu-γGlu-C14 diacid])KILLEQEKQKKQREQAETN[Api]QILAQV-NH2) | 5 | < 6.60 | 7.72
CC[C@H](C)[C@H](NC(C)=O)C(=O)N[C@H](C(=O)N[C@@H](CC(C)C)C(=O)N[C@@H](CO)C(=O)N[C@@H](CC(C)C)C(=O)N[C@@H](CC(=O)O)C(=O)N[C@@H](C(=O)N1CCC[C@H]1C(=O)N[C@H](C(=O)N[C@@H](CCCCN)C(=O)N[C@@H](CC(C)C)C(=O)N[C@@H](CCCCNC(=O)COCCOCCNC(=O)CC[C@H](NC(=O)CC[C@H](NC(=O)CCCCCCCCCCCCCCCCC(=O)O)C(=O)O)C(=O)O)C(=O)N[C@@H](CCCCN)C(=O)N[C@H](C(=O)N[C@@H](CC(C)C)C(=O)N[C@@H](CC(C)C)C(=O)N[C@@H](CCC(=O)O)C(=O)N[C@@H](CCC(N)=O)C(=O)N[C@@H](CCC(=O)O)C(=O)N[C@@H](CCCCN)C(=O)N[C@@H](CCC(N)=O)C(=O)N[C@@H](CCCCN)C(=O)N[C@@H](CCCCN)C(=O)N[C@@H](CCC(N)=O)C(=O)N[C@@H](CCCNC(=N)N)C(=O)N[C@@H](CCC(=O)O)C(=O)N[C@@H](CCC(N)=O)C(=O)N[C@@H](C)C(=O)N[C@@H](CCC(=O)O)C(=O)N[C@H](C(=O)N[C@@H](CC(N)=O)C(=O)NC(C)(C)C(=O)N[C@@H](CCC(N)=O)C(=O)N[C@H](C(=O)N[C@@H](CC(C)C)C(=O)N[C@@H](C)C(=O)N[C@@H](CCC(N)=O)C(=O)N[C@H](C(N)=O)C(C)C)[C@@H](C)CC)[C@@H](C)O)[C@@H](C)CC)[C@@H](C)CC)C(C)C)C(C)C [compound 205] (Ac-IVLSLD[dV]PIKLK([AEEA-γGlu-γGlu-C18 diacid])KILLEQEKQKKQREQAETN[Aib]QILAQV-NH2) | 1 | < 6.60 | 8.84
